Data taken from patent publication US12202840B2, “Compounds for the treatment or alleviation of disorders associated with Tau aggregates” (AC Immune SA, priority 2018, dated 2025).

Legend:
[1] = biological target: T1, flTau aggregates (longest isoform of human Tau, 2N4R; 441 amino acids) (Homo sapiens, UniProt P10636); assay: Full-length Tau (flTau) disaggregation assay by Thioflavin T (ThT); assay type: biochemical; details: 2 μM flTau aggregates, 160 to 0.04 μM compound, 30 minutes RT, ThT fluorescence
T1 construct: 35 μM of recombinant full-length (fl)Tau in PBS were aggregated for 24 hours; made in house; host or cells: bacteria
T1 sequence (P10636 1-441 isoform P10636-8): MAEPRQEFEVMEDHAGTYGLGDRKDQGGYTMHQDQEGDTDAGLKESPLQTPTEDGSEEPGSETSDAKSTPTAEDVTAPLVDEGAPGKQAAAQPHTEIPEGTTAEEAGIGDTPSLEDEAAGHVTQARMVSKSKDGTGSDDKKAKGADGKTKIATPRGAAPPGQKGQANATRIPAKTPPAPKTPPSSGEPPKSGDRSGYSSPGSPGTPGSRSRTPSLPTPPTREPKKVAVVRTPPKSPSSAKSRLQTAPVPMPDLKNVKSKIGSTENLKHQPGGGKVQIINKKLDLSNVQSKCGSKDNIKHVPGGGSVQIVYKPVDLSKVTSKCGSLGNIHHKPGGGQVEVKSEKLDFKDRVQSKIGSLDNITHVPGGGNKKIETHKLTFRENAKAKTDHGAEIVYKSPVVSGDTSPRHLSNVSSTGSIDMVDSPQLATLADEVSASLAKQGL
Experimental: Biological Assay Description Full-Length Tau (flTau) Disaggregation Assay by Thioflavin T (ThT)
The longest isoform of human Tau (2N4R; 441 amino acids) was expressed in bacteria and purified. For the Tau disaggregation assay by ThT, 35 μM of recombinant full-length (fl)Tau in PBS were aggregated for 24 hours at 37° C. in presence of 50 μM of heparin (Sigma-Aldrich) and 10 mM of DTT (Sigma-Aldrich) under shaking at 750 RPM. Compounds were dissolved in anhydrous dimethyl sulfoxide (DMSO, Sigma-Aldrich) to reach a concentration of 10 mM.
(§1) flTau aggregates and serial dilutions of compounds were mixed together in PBS (volume 50 μL) to a final concentration of 2 μM of flTau aggregates and from 160 to 0.04 μM of compounds. The mixture was incubated for 30 minutes at room temperature (RT), then 40 μL of this mixture were transferred into a black 384-well plate assay (Perkin-Elmer) and mixed with 10 μL of 100 μM ThT in 250 mM glycine (both from Sigma-Aldrich) in PBS. Fluorescence (relative fluorescence units; RFU) was measured in monoplicate or duplicate on a Tecan reader (excitation: 440 nm; emission: 485 nm). Percentage of flTau disaggregation was then calculated and the halfmaximal effective concentration (EC50) was determined using GraphPad Prism version 5 (GraphPad Software) assuming a one-binding site fitting model.

[2] = biological target: T2, K18 aggregates (Tau K18 fragment, amino acids 244 to 372 of human Tau441) (Homo sapiens, UniProt P10636); assay: Tau K18 disaggregation assay by ThT; assay type: biochemical; details: 2 μM K18 aggregates, 160 to 0.04 μM compound, 30 minutes RT, ThT fluorescence; read-out: TauK18 disaggregation EC50
T2 construct: encompassing amino acids 244 to 372 of the longest isoform (2N4R) of human Tau441; host or cells: bacteria
T2 sequence (P10636 561-689): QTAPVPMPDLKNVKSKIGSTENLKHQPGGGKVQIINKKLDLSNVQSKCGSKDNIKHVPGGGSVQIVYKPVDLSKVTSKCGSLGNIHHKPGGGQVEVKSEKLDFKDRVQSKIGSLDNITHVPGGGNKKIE
Experimental: Tau K18 Disaggregation Assay by ThT
as §1, with “The Tau K18 fragment, encompassing amino acids 244 to 372 of the longest isoform (2N4R) of human Tau441, was expressed in bacteria and purified or bought from SignalChem. For the K18 disaggregation assay by ThT, 35 μM of recombinant K18 in PBS were aggregated for 24 hours at 37° C. in presence of 50 μM of heparin (Sigma-Aldrich) and 10 mM of DTT (Sigma-Aldrich) under shaking at 750 RPM. Compounds were dissolved in anhydrous dimethyl sulfoxide (DMSO, Sigma-Aldrich) to reach a concentration of 10 mM. K18 aggregates” for “flTau aggregates”, “of K18” for “of flTau”, “and half maximal” for “and the halfmaximal”

[3] = test system: human neuroblastoma cell line overexpressing the full-length form of human Tau carrying the P301L mutation; assay: Reduction of intracellular Tau aggregation (AlphaLISA); assay type: cell-based; details: compound at 5 μM, 24 h; aggregated Tau normalized to total Tau, relative to DMSO-treated cells
Experimental: Reduction of Intracellular Tau Aggregation
A human neuroblastoma cell line overexpressing the full-length form of human Tau carrying the P301L mutation was cultured in complete medium [DMEM-F12 4.5 g/L Glutamax (Invitrogen), 15% FBS (Biochrom), 1% Peni/Strep (Invitrogen) supplemented with 2.5 μg/ml of G418 (Sigma-Aldrich) selection antibiotic]. The day before the experiment 5×10^5 cells/well were plated in a 6 well plate in 3 mL of complete medium. The next day, cells were incubated with DMSO or a compound of the present invention at a 5 μM for additional 24 h at 37° C. After incubation, cells were trypsinized, resupsended in 100 μl of homogenization buffer [25 mM Tris-HCl pH 7.4, 150 mM NaCl, 1 mM EDTA, 1 mM EGTA containing phosphatase inhibitors (30 mM NaF, 0.2 mM Na3VO4, 1 nM Okadaic acid, 1 mM PMSF, 5 mM Na4P2O7) and protease inhibitor cocktail (Complete™, Roche)], and then physically lysed with three rapid cycles of freezing and thawing. Samples were then directly tested in the AlphaLISA assay.
Phosphorylated, aggregated, and total Tau were quantified by AlphaLisa using the following antibody pairs: • HT7-Acceptor beads+biotin (BT)-Tau13-Donor beads: Total Tau • HT7-Acceptor beads+biotin (BT)-HT7-Donor beads: Aggregated human Tau
The Tau13 (Abcam) was biotinylated using EZ-Link® NHS-PEO Solid Phase biotinylation kit (Thermo Scientific), while the HT7-biotin was from a commercial source (Thermo Scientific).
For each antibody pairs the concentration of acceptor beads and biotinylated antibodies was optimized. All samples were first tested in a dilution series in PBS in order to identify the linear range and optimal dilution for each sample and assay. For the final protocol, the following reagents were added in a 384-well white OptiPlate (Perkin Elmer): • 5 μL of test diluted sample • 20 μL of the mixture biotin-mAb acceptor beads at the following final concentrations: • HT7-BT at 1.25 nM in combination with HT7-Acc beads at 10 μg/ml • Tau13-BT at 5 nM in combination with HT7-Acc beads at 2.5 μg/ml
After incubation of this mixture at room temperature for 1 h, 25 μL of Streptavidin Donor beads (Perkin Elmer) at 25 μg/mL were added in the dark. Plates were analyzed after 30 min incubation using the EnSpire Alpha instrument and EnSpire Workstation version 3.00.
Data for aggregated Tau were normalized to total Tau and then expressed as percentage of the DMSO-treated cells.

Row | EC50 [1] [µM] | EC50 [2] [µM] | SMILES | % Reduction of intracellular Tau aggregation [3]
1 | < 10 | 10 to 25 | CC(C)N1CCc2c(c3ccc(Nc4ccc5nc(N6CCOCC6)sc5c4)nc3n2C)C1 [Example 1] | + (+ %25 < x < 10)
2 | < 10 | < 10 | CN(C)[C@@H]1CCc2c(c3ccc(Nc4ccc5sc(N6CCOCC6)nc5c4)nc3n2C)C1 [Example 2] | + (+ %25 < x < 10)
3 | < 10 | < 10 | CN(C)[C@@H]1CCc2c(c3ccc(Nc4ccc5nc(N6CCOCC6)sc5c4)nc3n2C)C1 [Example 12] | ++ (++ %50 < x < 25)
